Values joined by “and” are separate entries in the source; they are usually repeats but may differ in a detail not shown here. Equal entries are not always repeated.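 Briefly, cells in 96-well plates were exposed to five compound concentrations for 48 h, and endpoints were estimated by linear interpolation. GI50: concentration for 50% inhibition of growth. Definition used: TGI = concentration required for complete inhibition of growth.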
Columns and labels:
Test in all cases: NCI tumour cell line growth inhibition, 48 h
[1] = tested on: MALME-3M melanoma
[2] = tested on: IGROV1 ovarian
[3] = tested on: RXF 393 renal
[4] = tested on: OVCAR-3 ovarian
[5] = tested on: SK-MEL-2 melanoma
[6] = tested on: HCC-2998 colon
[7] = tested on: RPMI-8226 leukemia
[8] = tested on: ACHN renal
[9] = tested on: CCRF-CEM leukemia
[10] = tested on: SF-268 CNS
[11] = tested on: KM12 colon
[12] = tested on: EKVX NSCLC
[13] = tested on: 786-0 renal
[14] = tested on: TK-10 renal
[15] = tested on: MDA-N
[16] = tested on: PC-3 prostate
[17] = tested on: NCI-H226 lung
[18] = tested on: BT-549 breast
[19] = tested on: HCT-15 colon
[20] = tested on: SK-OV-3 ovarian
[21] = tested on: M19-MEL melanoma
[22] = tested on: U251 CNS
[23] = tested on: MDA-MB-435
[24] = tested on: UACC-62 melanoma
[25] = tested on: HS 578T breast
[26] = tested on: NCI/ADR-RES ovarian
[27] = tested on: HL-60(TB) leukemia

Compound: C/C(=C\COc1ccc2ccc(=O)oc2c1)C1=CC(=O)C(C)(C)O1
- TGI [1]: 25.6 µM and 14.8 µM
- GI50 [2]: 2.73 µM
- TGI [2]: 9.02 µM and 22.1 µM
- GI50 [3]: 2.39 µM
- TGI [3]: 12.2 µM and 5.61 µM
- GI50 [4]: 2.44 µM
- TGI [4]: 5.55 µM and 9.43 µM
- GI50 [5]: 4.19 µM
- TGI [5]: 23.2 µM and 15.1 µM
- GI50 [6]: 2.85 µM
- TGI [6]: 5.76 µM and 8.34 µM
- TGI [7]: 6.2 µM and 15.7 µM
- TGI [8]: 15.9 µM
- GI50 [9]: 2.28 µM
- TGI [9]: 7.11 µM and 21.4 µM
- GI50 [10]: 4.74 µM
- TGI [10]: 14.9 µM and 14.3 µM
- GI50 [11]: 2.66 µM and 2.35 µM
- TGI [11]: 9.77 µM and 8.59 µM
- GI50 [12]: 4.9 µM
- TGI [12]: 28.2 µM and 30.6 µM
- TGI [13]: 12.9 µM
- TGI [14]: 16.7 µM
- TGI [15]: 16 µM
- TGI [16]: 23.3 µM
- GI50 [17]: 2.64 µM
- TGI [17]: 7.24 µM and 10.2 µM
- TGI [18]: 19.1 µM
- TGI [19]: 15.9 µM and 19.4 µM
- GI50 [20]: 3.06 µM
- TGI [20]: 8.72 µM and 34.1 µM
- TGI [21]: 14.6 µM
- GI50 [22]: 2.7 µM
- TGI [22]: 10.1 µM and 8.61 µM
- TGI [23]: 13.2 µM
- GI50 [24]: 2.3 µM
- TGI [24]: 6.43 µM and 10.5 µM
- TGI [25]: 7.3 µM
- GI50 [26]: 3.81 µM
- TGI [26]: > 100 µM and 35.6 µM
- GI50 [27]: 1.76 µM
- TGI [27]: 5.09 µM and 16.9 µM

Source: PubChem BioAssay (NCI)
